Results: patent publication US8168391B2, “Method for modulating insulin production” (Burnham Institute for Medical Research, priority 2007, dated 2012)
Counter-ions that a name gives are not always drawn.

Key:
insulin promoter [1] = test: Insulin promoter/reporter screen in the presence of a fatty acid (reversal of palmitate-induced lipotoxicity); format: cell-based, human; conditions: screen in presence of fatty acid (FIG. 20) vs not in presence (FIG. 19)
Text: The assays employ a cell line derived from human fetal islet cells (T6PNE) in which the cells are infected with a promoter/reporter construct. The construct is shown in FIG. 7 and incorporates an insulin promoter operably linked to an eGFP. Cells were infected and plated, and candidate libraries screened and “hit” detected as discussed in Example 1.
To differentiate between agents that specifically act to reverse lipotoxicity as compared to generally increasing transcription of insulin a two layer screening approach was utilized. In the first layer, islet cells infected with an insulin promoter/reporter construct are screened in the absence of a fatty acid. A “hit” indicates an agent that is capable of increasing insulin transcription. In the second layer, islet cells infected with an insulin promoter/reporter construct are screened in the presence of a fatty acid. A “hit” indicates a drug that reverses the effects of the fatty acid addition, for example reduction of insulin transcription. This drugs screened in both layers may be used to identify whether the drug is specific to lipotoxicity reversal. For example, drugs that are “hits” in the second layer screen but not in the first layer screen are specific to lipotoxicity reversal.

insulin promoter [2] = test: HTS insulin promoter/eGFP reporter screen in T6PNE cells (absence of fatty acid); format: cell-based, human; conditions: for activator of insulin promoter confirmed in confirmatory screen: repeat of initial screen with dose response, T6PNE cells, insulin promoter-eGFP
Procedure: A library of 1000 candidate drug compounds was initially screened using NEPCs cultured in a 384-well HTS format using the following method. NEPCs were infected with promoter/reporter constructs in suspension for 6 hours. The cells were then directly plated on Collagen I coated 384-well microtiter plates in media containing 10% plasma. Monolayer formation was allowed to progress by culture for 4 days with regular media changes. Library compounds were then contacted with the cells and added at a final concentration of 5 μM and incubated for 48 hours. Image analysis was then performed using fluorescent microscopy using DAPI […] and imaging of GFP to determine promoter activation activity of individual compounds. Image analysis algorithms are further refined to eliminate auto-fluorescent debris to accurately quantify green fluorescence. The assays employ a cell line derived from human fetal islet cells ([…]) in which the cells are infected with a promoter/reporter construct. The construct is shown in FIG. 7 and incorporates an insulin promoter operably linked to an eGFP. Cells were infected and plated, and candidate libraries screened and “hit” detected as discussed in Example 1. To differentiate between agents that specifically act to reverse lipotoxicity as compared to generally increasing transcription of insulin a two layer screening approach was utilized. In the first layer, islet cells infected with an insulin promoter/reporter construct are screened in the absence of a fatty acid. A “hit” indicates an agent that is capable of increasing insulin transcription. In the second layer, islet cells infected with an insulin promoter/reporter construct are screened in the presence of a fatty acid. A “hit” indicates a drug that reverses the effects of the fatty acid addition, for example reduction of insulin transcription. This drugs screened in both layers may be used to identify whether the drug is specific to lipotoxicity reversal. For example, drugs that are “hits” in the second layer screen but not in the first layer screen are specific to lipotoxicity reversal. […]

SMILES	reversal of palmitate-induced lipotoxicity (insulin promoter [1])	other results
CC(=O)Oc1c(C)c(C)c2c(c1C)CCC(C)(CCC[C@H](C)CCC[C@H](C)CCCC(C)C)O2 (stereo partly drawn) [alpha-tocopheryl acetate]	expected to reverse lipotoxicity	
CC(Cc1cccc(C(F)(F)F)c1)NCCOC(=O)c1ccccc1 (stereo not drawn) [benfluorex hydrochloride]	expected to reverse lipotoxicity	
CC1=C(/C=C/C(C)=C/C=C/C(C)=C/C=C/C=C(C)/C=C/C=C(C)/C=C/C2=C(C)CCCC2(C)C)C(C)(C)CCC1 [beta-carotene]	expected to reverse lipotoxicity	
CN(C)CCCN1c2ccccc2Sc2ccc(Cl)cc21 [chlorpromazine]		activator of insulin promoter confirmed in confirmatory screen (insulin promoter [2]): confirmed
Clc1ccc(C(OCCN2CCCCC2)c2ccccc2)cc1 (stereo not drawn) [cloperastine hydrochloride]	expected to reverse lipotoxicity	
NCCc1ccc(O)c(O)c1 [dopamine]		upregulation of the insulin promoter (insulin promoter [2]; ChemBridge DiverSet library screen as in Example 2): upregulated the insulin promoter
CCN(CC)C(C)CN1c2ccccc2Sc2ccccc21 (stereo not drawn) [ethopropazine]		activator of insulin promoter confirmed in confirmatory screen (insulin promoter [2]): confirmed
CC[C@H](C)C(=O)O[C@H]1C[C@@H](C)C=C2C=C[C@H](C)[C@H](CC[C@@H]3C[C@@H](O)CC(=O)O3)[C@H]21 [lovastatin]	expected to reverse lipotoxicity	
Cc1cccc(Nc2ccccc2C(=O)O)c1C [mefenamic acid]	expected to reverse lipotoxicity	
